How the values were obtained:
NB12 (Neuroblastoma) [1] = experiment: Bliss excess, mean over the matrix (fraction); higher = more synergy
Outline: (§1)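 Cell lines in DMEM/F12 or RPMI with 10% FBS were plated in 1536-well plates, held 24 hours at 37°C, 5% CO2, then given two-drug dose matrices for 72 hours (DMSO typically 0.2%). Viability was read by CellTiter-Glo 2.0 luminescence and scaled as inhibition from 0 (vehicle wells) to 1 (blank wells). Combination Emax is the second-highest inhibition in the matrix; Bliss excess is observed combination effect minus expected EA + EB − EA·EB, EA and EB being single-agent effects.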

SK-MEL-2 (Melanoma) [2] = experiment: as above
Outline: as §1

NB12 (Neuroblastoma) [3] = experiment: combination Emax (second highest fraction inhibited in the dose matrix, 72 h); higher = more inhibition; extreme values may be limits of the assay
Outline: as §1

SF539 (Glioblastoma) = experiment: as above
Outline: as §1

SK-MEL-2 (Melanoma) [4] = experiment: as above
Outline: as §1

[5] = system: HCT-15 (Colorectal Carcinoma); experiment: as above
Outline: as §1

[6] = system: NCI-H23 (Lung Adenocarcinoma); experiment: as above
Outline: as §1

WM793B (Melanoma) = experiment: as above
Outline: as §1

[7] = system: L-1236 (Hodgkin's Lymphoma); experiment: as above
Outline: as §1

[8] = system: COLO-680N (Esophageal Squamous Cell Carcinoma); experiment: as above
Outline: as §1
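For Bliss excess, mean over the matrix in this document: after 72 h of two-drug dosing.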

Structure (SMILES)	Bliss excess (NB12 (Neuroblastoma) [1])	Bliss excess (SK-MEL-2 (Melanoma) [2])	combination Emax (NB12 (Neuroblastoma) [3])	combination Emax (SF539 (Glioblastoma))	combination Emax (SK-MEL-2 (Melanoma) [4])	combination Emax [5]	combination Emax [6]	combination Emax (WM793B (Melanoma))	combination Emax [7]	combination Emax [8]
Cn1cnc2c(F)c(Nc3ccc(Br)cc3Cl)c(C(=O)NOCCO)cc21 [Selumetinib] + CC(C)n1c(=O)n(C)c2cnc3cc(F)c(-c4ccc(OCCCN5CCCCC5)nc4)cc3c21 [AZD1390] (first compound max 10 µM, 7x7, partner max 0.3 µM)	-0.0215	-0.0602	0.106	0.359	0.739	0.155	0.339	0.503	0.301	0.143
Cn1cnc2c(F)c(Nc3ccc(Br)cc3Cl)c(C(=O)NOCCO)cc21 [Selumetinib] + CCN(CCO)CCCOc1ccc2c(Nc3cc(CC(=O)Nc4cccc(F)c4)[nH]n3)ncnc2c1 [AZD2811] (first compound max 10 µM, 7x7, partner max 1 µM)	-0.0881	-0.0538	0.607	0.501	0.722	0.28	0.484	0.528	0.289	0.188
NC1(C(=O)N[C@@H](CCO)c2ccc(Cl)cc2)CCN(c2ncnc3[nH]ccc23)CC1 [Capivasertib] + C[C@@H]1COCCN1C2=NC(=NC(=C2)C3(CC3)[S@](=N)(=O)C)C4=C5C=CNC5=NC=C4 [AZD6738] (first compound max 10 µM, 7x7, partner max 10 µM)	-0.0449	-0.0335	0.738	0.879	0.152	0.738	0.87	0.842	0.818	0.373
CC(=O)c1c(C)c2cnc(Nc3ccc(N4CCNCC4)cn3)nc2n(C2CCCC2)c1=O [Palbociclib] + CC1(C)CCC(CN2CCN(c3ccc(C(=O)NS(=O)(=O)c4ccc(NCC5CCOCC5)c([N+](=O)[O-])c4)c(Oc4cnc5[nH]ccc5c4)c3)CC2)=C(c2ccc(Cl)cc2)C1 [Venetoclax] (first compound max 10 µM, 7x7, partner max 1 µM)	0.0237	-0.0492	0.614	0.262	0.11	0.526	0.168	0.327	0.611	0.0584
NC1(C(=O)N[C@@H](CCO)c2ccc(Cl)cc2)CCN(c2ncnc3[nH]ccc23)CC1 [Capivasertib] + CC(=O)c1c(C)c2cnc(Nc3ccc(N4CCNCC4)cn3)nc2n(C2CCCC2)c1=O [Palbociclib] (first compound max 10 µM, 7x7, partner max 10 µM)	0.0139	-0.0408	0.399	0.578	0.0717	0.665	0.512	0.548	0.861	0.197
NC1(C(=O)N[C@@H](CCO)c2ccc(Cl)cc2)CCN(c2ncnc3[nH]ccc23)CC1 [Capivasertib] + Cn1cnc2c(F)c(Nc3ccc(Br)cc3Cl)c(C(=O)NOCCO)cc21 [Selumetinib] (first compound max 10 µM, 7x7, partner max 10 µM)	0.0154	0.0662	0.504	0.68	0.843	0.559	0.454	0.768	0.844	0.392
CC(=O)c1c(C)c2cnc(Nc3ccc(N4CCNCC4)cn3)nc2n(C2CCCC2)c1=O [Palbociclib] + Cc1c2c(nn1C)CSCc1cc(n(C)n1)CSc1cc(c3ccccc3c1)OCCCc1c(C(=O)O)n(C)c3c-2c(Cl)ccc13 [AZD5991] (first compound max 10 µM, 7x7, partner max 1 µM)	0.0159	-0.045	0.357	0.293	0.905	0.532	0.934	0.432	0.782	0.237
CN(CCO)CC[C@H](CSc1ccccc1)Nc1ccc(S(=O)(=O)NC(=O)c2ccc(N3CCC([C@@H](O)c4ccccc4-c4ccc(Cl)cc4)CC3)cc2)cc1S(=O)(=O)C(F)(F)F [AZD4320] + Cc1cc2ncnn2cc1Nc1ncc2c(n1)n(C1CCOCC1)c(=O)n2C [AZD7648] (first compound max 1 µM, 7x7, partner max 10 µM)	–	–	–	0.214	–	0.135	0.156	0.221	0.958	0.0933
CC1(C)CCC(CN2CCN(c3ccc(C(=O)NS(=O)(=O)c4ccc(NCC5CCOCC5)c([N+](=O)[O-])c4)c(Oc4cnc5[nH]ccc5c4)c3)CC2)=C(c2ccc(Cl)cc2)C1 [Venetoclax] + Cn1cnc2c(F)c(Nc3ccc(Br)cc3Cl)c(C(=O)NOCCO)cc21 [Selumetinib] (first compound max 1 µM, 7x7, partner max 3 µM)	–	–	–	0.217	–	0.156	0.264	0.42	0.731	0.159
CCN(CCO)CCCOc1ccc2c(Nc3cc(CC(=O)Nc4cccc(F)c4)[nH]n3)ncnc2c1 [AZD2811] + C[C@@H]1COCCN1C2=NC(=NC(=C2)C3(CC3)[S@](=N)(=O)C)C4=C5C=CNC5=NC=C4 [AZD6738] (first compound max 1 µM, 7x7, partner max 10 µM)	–	–	–	0.955	–	0.805	0.785	0.769	0.595	0.309
Cc1cc2ncnn2cc1Nc1ncc2c(n1)n(C1CCOCC1)c(=O)n2C [AZD7648] + CCN(CCO)CCCOc1ccc2c(Nc3cc(CC(=O)Nc4cccc(F)c4)[nH]n3)ncnc2c1 [AZD2811] (first compound max 10 µM, 7x7, partner max 1 µM)	–	–	–	0.462	–	0.455	0.228	0.411	0.384	0.236
CCc1c2c(nc3ccc(O)cc13)-c1cc3c(c(=O)n1C2)COC(=O)[C@]3(O)CC [SN-38] + CN(C)CCCOc1ccc(-c2ccc3ncc4c(c3c2)n(C2CCOCC2)c(=O)n4C)cn1 [AZD0156] (first compound max 0.3 µM, 7x7, partner max 1 µM)	–	–	–	0.895	–	0.943	0.554	0.85	0.76	0.412
Cc1c2c(nn1C)CSCc1cc(n(C)n1)CSc1cc(c3ccccc3c1)OCCCc1c(C(=O)O)n(C)c3c-2c(Cl)ccc13 [AZD5991] + C[C@@H]1COCCN1C2=NC(=NC(=C2)C3(CC3)[S@](=N)(=O)C)C4=C5C=CNC5=NC=C4 [AZD6738] (first compound max 1 µM, 7x7, partner max 10 µM)	–	–	–	0.919	–	0.733	0.977	0.834	0.74	0.324
Cc1c2c(nn1C)CSCc1cc(n(C)n1)CSc1cc(c3ccccc3c1)OCCCc1c(C(=O)O)n(C)c3c-2c(Cl)ccc13 [AZD5991] + CCN(CCO)CCCOc1ccc2c(Nc3cc(CC(=O)Nc4cccc(F)c4)[nH]n3)ncnc2c1 [AZD2811] (first compound max 1 µM, 7x7, partner max 1 µM)	–	–	–	0.553	–	0.263	0.926	0.374	0.491	0.211
CN(C)CCCOc1ccc(-c2ccc3ncc4c(c3c2)n(C2CCOCC2)c(=O)n4C)cn1 [AZD0156] + CCN(CCO)CCCOc1ccc2c(Nc3cc(CC(=O)Nc4cccc(F)c4)[nH]n3)ncnc2c1 [AZD2811] (first compound max 1 µM, 7x7, partner max 1 µM)	–	–	–	0.394	–	0.317	0.151	0.323	0.215	0.0884
CN(CCO)CC[C@H](CSc1ccccc1)Nc1ccc(S(=O)(=O)NC(=O)c2ccc(N3CCC([C@@H](O)c4ccccc4-c4ccc(Cl)cc4)CC3)cc2)cc1S(=O)(=O)C(F)(F)F [AZD4320] + C[C@@H](Nc1cc(F)cc(F)c1)c1cc(C(=O)N(C)C)cc2c(=O)cc(N3CCOCC3)oc12 [AZD8186] (first compound max 1 µM, 7x7, partner max 3 µM)	–	–	–	0.373	–	0.187	0.335	0.531	0.981	0.243
CN(CCO)CC[C@H](CSc1ccccc1)Nc1ccc(S(=O)(=O)NC(=O)c2ccc(N3CCC([C@@H](O)c4ccccc4-c4ccc(Cl)cc4)CC3)cc2)cc1S(=O)(=O)C(F)(F)F [AZD4320] + C=CCn1c(=O)c2cnc(Nc3ccc(N4CCN(C)CC4)cc3)nc2n1-c1cccc(C(C)(C)O)n1 [AZD1775] (first compound max 1 µM, partner max 1 µM)	–	–	–	0.978	–	0.456	0.832	0.622	1	0.223
CS(=O)(=O)CCNCc1ccc(-c2ccc3ncnc(Nc4ccc(OCc5cccc(F)c5)c(Cl)c4)c3c2)o1 [Lapatinib] + NC1(c2ccc(-c3nc4ccn5c(=O)[nH]nc5c4cc3-c3ccccc3)cc2)CCC1 [MK-2206] (first compound max 10 µM, 7x7, partner max 10 µM)	-0.0253	-0.0096	0.843	0.953	0.692	–	0.338	–	0.888	0.467
CN(CCO)CC[C@H](CSc1ccccc1)Nc1ccc(S(=O)(=O)NC(=O)c2ccc(N3CCC([C@@H](O)c4ccccc4-c4ccc(Cl)cc4)CC3)cc2)cc1S(=O)(=O)C(F)(F)F [AZD4320] + CCN(CCO)CCCOc1ccc2c(Nc3cc(CC(=O)Nc4cccc(F)c4)[nH]n3)ncnc2c1 [AZD2811] (first compound max 1 µM, 7x7, partner max 1 µM)	–	–	–	0.584	–	0.135	0.216	0.246	0.961	0.137
CN(CCO)CC[C@H](CSc1ccccc1)Nc1ccc(S(=O)(=O)NC(=O)c2ccc(N3CCC([C@@H](O)c4ccccc4-c4ccc(Cl)cc4)CC3)cc2)cc1S(=O)(=O)C(F)(F)F [AZD4320] + CN(C)CCCOc1ccc(-c2ccc3ncc4c(c3c2)n(C2CCOCC2)c(=O)n4C)cn1 [AZD0156] (first compound max 1 µM, 7x7, partner max 1 µM)	–	–	–	0.27	–	0.111	0.104	0.251	0.992	0.137

Source: the supplement of paper PMC11061612
